Assay results: patent US20260356834A1, “ANTICONVULSIVE COMPOUNDS AND USES THEREOF” (Jazz Pharmaceuticals Research UK Limite, priority 2023, published 2026)

test system: C57BL/6J mice; test: mouse maximal electroshock seizure threshold model using minimal sample sizes (mini-MEST); conditions: 25 mg/kg p.o., 30 min post dose
Method: An increase in seizure threshold is indicative of an anticonvulsive effect.
The ability of a test compound to alter the stimulus intensity, expressed as current (mA), required to induce the presence of tonic hind limb extensor convulsions, is assessed in the MEST.
In the mini-MEST test, a lower n number is used.
Male C57BL/6J mice were housed in groups of 6. Mice were kept under standard conditions (12 hour light cycle; light intensity of 25-75 lux) and fed a diet of certified rodent CR 14% protein rodent diet (LabDiet® 4CR4). Mice were 8-9 weeks old at the start of the study.
Naïve mice were acclimatised to the procedure room in their home cages for up to 7 days, with food and water available ad libitum.
All animals were weighed at the beginning of the study and randomly assigned to treatment groups based on a mean distribution of body weight across groups.
The first animal within a treatment group was given a shock at the expected or estimated CC50 current. For subsequent animals, the current was lowered or raised depending on the convulsions outcome from the preceding animal in log scale intervals.
Data generated from each treatment group were used to calculate the CC50±SEM values for the treatment group.
Vehicle: (5% ethanol, 10% Solutol® (Kolliphor® HS 15), 85% saline). 1 mL of ethanol, 2 mL of Solutol™ were warmed to 60 °C, in 17 mL of 0.9% saline.
Test compounds: 5-50 mg/kg in a 1:2:17 ethanol:Solutol®:saline formulation (as used for vehicle).

Compound	CC50 +/− SEM	Change from vehicle (CC50)
Cc1c(F)cn2ccnc2c1-c1c(O)cc(CCC(F)(F)F)cc1O [Compound 24, 2-(6-Fluoro-7-methylimidazo[1,2-a]pyridin-8-yl)-5-(3,3,3-trifluoropropyl)benzene-1,3-diol]	92.9 ± 1.1 mA	272%

same assay, conditions: 30 mg/kg i.p., 30 min post dose

Compound	CC50 +/− SEM	Change from vehicle (CC50)
CCC(C)(C)c1cc(O)c(-c2c(C)ccn3ccnc23)c(O)c1 [Compound 21, 2-(7-Methylimidazo[1,2-a]pyridin-8-yl)-5-(tert-pentyl)benzene-1,3-diol]	<33.0 mA	–
CCCc1cc(O)c(-c2c(C)c(C3CC3)cn3ccnc23)c(O)c1 [Compound 23, 2-(6-Cyclopropyl-7-methylimidazo[1,2-a]pyridin-8-yl)-5-propylbenzene-1,3-diol]	<33.0 mA	<52%
CCCCCc1cc(O)c(-c2c(C)ccn3ccnc23)c(O)c1 [Compound 13, 2-(7-Methylimidazo[1,2-a]pyridin-8-yl)-5-pentylbenzene-1,3-diol]	92.9 ± 1.1 mA	263%
CCCc1cc(O)c(-c2c(F)ccn3ccnc23)c(O)c1 [Compound 8, 2-(7-Fluoroimidazo[1,2-a]pyridin-8-yl)-5-propylbenzene-1,3-diol]	65.8 ± 1.9 mA	145%
CCCc1cc(O)c(-c2c(C3CC3)ccn3ccnc23)c(O)c1 [Compound 18, 2-(7-Cyclopropylimidazo[1,2-a]pyridin-8-yl)-5-propylbenzene-1,3-diol]	80.9 ± 1.1 mA	216%
CCCCCc1cc(O)c(-c2c(C)c(Cl)cn3ccnc23)c(O)c1 [Compound 17, 2-(6-Chloro-7-methylimidazo[1,2-a]pyridin-8-yl)-5-pentylbenzene-1,3-diol]	80.9 ± 10.8 mA	231%
CCCc1cc(O)c(-c2c(C)ccn3cc(C)nc23)c(O)c1 [Compound 3, 2-(2,7-Dimethylimidazo[1,2-a]pyridin-8-yl)-5-propylbenzene-1,3-diol]	35.3 ± 1.1 mA	32%
CCCc1cc(O)c(-c2cccn3ccnc23)c(O)c1 [Compound 1, 2-(imidazo[1,2-a]pyridin-8-yl)-5-propylbenzene-1,3-diol]	92.9 ± 1.1 mA	200%
CCCc1cc(O)c(-c2c(C)ccn3cc(Cl)nc23)c(O)c1 [Compound 12, 2-(2-Chloro-7-methylimidazo[1,2-a]pyridin-8-yl)-5-propylbenzene-1,3-diol]	57.3 ± 1.9 mA	145%
CCC(C)(C)c1cc(O)c(-c2c(C)c(Cl)cn3ccnc23)c(O)c1 [Compound 20, 2-(6-Chloro-7-methylimidazo[1,2-a]pyridin-8-yl)-5-(tert-pentyl)benzene-1,3-diol]	40.6 ± 1.1 mA	59%
CCCc1cc(O)c(-c2c(C(F)(F)F)ccn3ccnc23)c(O)c1 [Compound 5, 2-(7-trifluoromethylimidazo[1,2-a]pyridin-8-yl)-5-propylbenzene-1,3-diol]	<33.0 mA	<12%
CCCc1cc(O)c(-c2c(C)c(C)cn3ccnc23)c(O)c1 [Compound 7, 2-(6,7-Dimethylimidazo[1,2-a]pyridin-8-yl)-5-propylbenzene-1,3-diol]	53.5 ± 1.1 mA	100%
Cc1ccn2ccnc2c1-c1c(O)cccc1O [Compound 14, 2-(7-Methylimidazo[1,2-a]pyridin-8-yl)benzene-1,3-diol]	<33.0 mA	<52%
Cc1ccn2ccnc2c1-c1c(O)cc(C2CCCC2)cc1O [Compound 22, 5-Cyclopentyl-2-(7-methylimidazo[1,2-a]pyridin-8-yl)benzene-1,3-diol]	57.3 ± 1.9 mA	124%
CCCc1cc(O)c(-c2c(C)ccn3c(Cl)cnc23)c(O)c1 [Compound 10, 2-(3-Chloro-7-methylimidazo[1,2-a]pyridin-8-yl)-5-propylbenzene-1,3-diol]	<33.0 ± 0.0 mA	<29%
CCCc1cc(O)c(-c2c(C)ccn3cc(C(F)(F)F)nc23)c(O)c1 [Compound 15, 2-(2-Trifluoromethyl-7-methylimidazo[1,2-a]pyridin-8-yl)-5-propylbenzene-1,3-diol]	35.3 ± 1.1 mA	62%
CCCc1cc(O)c(-c2c(C)ccn3c(C)cnc23)c(O)c1 [Compound 9, 2-(3,7-Dimethylimidazo[1,2-a]pyridin-8-yl)-5-propylbenzene-1,3-diol]	58.6 ± 1.6 mA	152%
CCCc1cc(O)c(-c2c(Cl)ccn3ccnc23)c(O)c1 [Compound 6, 2-(7-Chloroimidazo[1,2-a]pyridin-8-yl)-5-propylbenzene-1,3-diol]	49.9 ± 1.9 mA	70%
CCCc1cc(O)c(-c2c(C)c(C(F)(F)F)cn3ccnc23)c(O)c1 [Compound 16, 2-(6-Trifluoromethyl-7-methylimidazo[1,2-a]pyridin-8-yl)-5-propylbenzene-1,3-diol]	<33.0 mA	<35%

same assay, conditions: 50 mg/kg p.o., 30 min post dose

Compound	CC50 +/− SEM	Change from vehicle (CC50)
Cc1c(F)cn2ccnc2c1-c1c(O)cc(CCC(F)(F)F)cc1O [Compound 24, 2-(6-Fluoro-7-methylimidazo[1,2-a]pyridin-8-yl)-5-(3,3,3-trifluoropropyl)benzene-1,3-diol]	>131.0 mA	>424%
Cc1c(Cl)cn2ccnc2c1-c1c(O)cc(Cl)cc1O [Compound 19, 5-Chloro-2-(6-chloro-7-methylimidazo[1,2-a]pyridin-8-yl)benzene-1,3-diol]	57.3 ± 1.9 mA	86%
CCCc1cc(O)c(-c2c(C3CC3)ccn3ccnc23)c(O)c1 [Compound 18, 2-(7-Cyclopropylimidazo[1,2-a]pyridin-8-yl)-5-propylbenzene-1,3-diol]	49.9 ± 1.9 mA	86%
